Columns and labels:
[1] = Cytotoxicity against human PBMC assessed as cell killing at IC50 after 48 hrs by MTT assay; details: PBMC (peripheral blood mononuclear cells)
Leishmania donovani [2] = test: Antileishmanial activity against axenic amastigotes of Leishmania donovani LEM-138 (MHOM/IN/00/DEVI) by MTT assay; type: functional, organism-based
Leishmania donovani [3] = test: Ratio of IC50 for promastigotes of Leishmania donovani LEM-138 (MHOM/IN/00/DEVI) to IC50 for axenic amastigotes of Leishmania donovani LEM-138 (MHOM/IN/00/DEVI); type: functional
Leishmania donovani [4] = test: Antileishmanial activity against promastigotes of Leishmania donovani LEM-138 (MHOM/IN/00/DEVI) by MTT assay; type: functional, organism-based
[5] = Cytotoxicity against human PBMC assessed as cell killing at 2 times IC50 after 48 hrs by MTT assay; details: PBMC (peripheral blood mononuclear cells)
Leishmania donovani [6] = test: Antileishmanial activity against amastigotes of Leishmania donovani LEM-138 (MHOM/IN/00/DEVI) infected in mouse J774A.1 cells after 72 hrs by Giemsa dye staining; type: functional, organism-based; details: J774.A1, 72 h

IC50 (Leishmania donovani [6]) [µM] | SMILES | cell killing at 48 h [1] [%] | IC50 (Leishmania donovani [2]) [µM] | Ratio IC50 (Leishmania donovani [3]) | IC50 (Leishmania donovani [4]) [µM] | cell killing at 48 h [5] [%]
– | COc1ccc(C(=O)c2cc3cccc(OC)c3oc2=S)cc1 | 16.6 | 502 | 2.8 | 1400 | 14.8
– | COc1cccc2cc(C(=O)c3ccc(C)cc3)c(=S)oc12 | 9.4 | 446 | 1.7 | 744 | 33.1
24 | COc1cccc2cc(C(=O)c3ccc(Cl)cc3)c(=S)oc12 | 0.46 | 73 | 0.66 | 48 | 20.2
17 | COc1ccc(C(=O)c2cc3cc(Br)ccc3oc2=S)cc1 | 32.9 | 198 | 2.3 | 450 | 40.5
– | COc1cccc2cc(C(=O)c3cccs3)c(=S)oc12 | 11.1 | 927 | 4.6 | 4300 | 19.5
26 | COc1cccc2cc(C(=O)c3ccco3)c(=S)oc12 | 12.3 | 65 | 18.8 | 1220 | 26
– | O=C(c1ccco1)c1cc2cc(Br)ccc2oc1=S | 10.7 | 524 | 2 | 1030 | 17.6
– | O=C(c1cccs1)c1cc2cc(Br)ccc2oc1=S | 10.9 | 83 | 55.8 | 4630 | 6.66
– | COc1ccc(C(=O)c2cc3c(ccc4ccccc43)oc2=S)cc1 | 15.1 | 221 | 1.5 | 335 | 27
– | O=C(c1ccco1)c1cc2c(ccc3ccccc32)oc1=S | 12 | 37 | 75 | 2770 | 27.8
22 | O=C(c1cccs1)c1cc2c(ccc3ccccc32)oc1=S | 28.8 | 36 | 2.7 | 97 | 24.6
– | C[C@@H]1[C@H](O)[C@@H](C)/C=C/C=C/C=C/C=C/C=C/C=C/C=C/[C@H](O[C@@H]2O[C@H](C)[C@@H](O)[C@H](N)[C@@H]2O)C[C@@H]2O[C@](O)(C[C@@H](O)C[C@@H](O)[C@H](O)CC[C@@H](O)C[C@@H](O)CC(=O)O[C@H]1C)C[C@H](O)[C@H]2C(=O)O [AMPHOTERICIN B] | 16 | 0.061 | – | 0.465 | 24.4
